According to PubChem BioAssay AID1259407 (Chemical Carcinogenesis Research Information System (CCRIS), 2018):
The source made the active and inactive calls. How the calls were made is not given here.

Tested on: CCRIS mutagenicity, Ames/micronucleus/aberration tests
Assay: CCRIS mutagenicity studies
[1] = Test System: AMES SALMONELLA TYPHIMURIUM, Strain/Indicator: TA98, Metabolic Activation: NONE, Method: STANDARD PLATE
[2] = Test System: AMES SALMONELLA TYPHIMURIUM, Strain/Indicator: TA98, Metabolic Activation: RAT, LIVER, S-9, AROCLOR 1254, Method: STANDARD PLATE
[3] = Test System: AMES SALMONELLA TYPHIMURIUM, Strain/Indicator: TA100, Metabolic Activation: NONE, Method: STANDARD PLATE
[4] = Test System: AMES SALMONELLA TYPHIMURIUM, Strain/Indicator: TA100, Metabolic Activation: RAT, LIVER, S-9, AROCLOR 1254, Method: STANDARD PLATE

Cc1cc(=O)n(-c2ccccc2)n1C
mutagenic call (Test System: AMES SALMONELLA TYPHIMURIUM, Strain/Indicator: TA97, Metabolic Activation: NONE, Method: STANDARD PLATE): inactive; negative
mutagenic call (Test System: AMES SALMONELLA TYPHIMURIUM, Strain/Indicator: TA97, Metabolic Activation: RAT, LIVER, S-9, AROCLOR 1254, Method: STANDARD PLATE): inactive; negative
mutagenic call (Test System: AMES SALMONELLA TYPHIMURIUM, Strain/Indicator: TA97A, Metabolic Activation: NONE, Method: STANDARD PLATE): inactive; negative
mutagenic call (Test System: AMES SALMONELLA TYPHIMURIUM, Strain/Indicator: TA97A, Metabolic Activation: RAT LIVER S-9, PHENOBARBITAL, Method: STANDARD PLATE): inactive; negative
mutagenic call (Test System: AMES SALMONELLA TYPHIMURIUM, Strain/Indicator: TA98, Metabolic Activation: GUINEA PIG, LIVER, S-9, PCB, Method: PREINCUBATION): inactive; negative
mutagenic call (Test System: AMES SALMONELLA TYPHIMURIUM, Strain/Indicator: TA98, Metabolic Activation: HAMSTER, LIVER, S-9, PCB, Method: PREINCUBATION): inactive; negative
mutagenic call (Test System: AMES SALMONELLA TYPHIMURIUM, Strain/Indicator: TA98, Metabolic Activation: MOUSE, LIVER, S-9, PCB, Method: PREINCUBATION): inactive; negative
mutagenic call (Test System: AMES SALMONELLA TYPHIMURIUM, Strain/Indicator: TA98, Metabolic Activation: NONE, Method: PREINCUBATION): inactive; negative
mutagenic call [1]: inactive; negative
mutagenic call (Test System: AMES SALMONELLA TYPHIMURIUM, Strain/Indicator: TA98, Metabolic Activation: RAT LIVER S-9, PHENOBARBITAL, Method: STANDARD PLATE): inactive; negative
mutagenic call [2]: inactive; negative
mutagenic call (Test System: AMES SALMONELLA TYPHIMURIUM, Strain/Indicator: TA98, Metabolic Activation: RAT, LIVER, S-9, PCB, Method: PREINCUBATION): inactive; negative
mutagenic call (Test System: AMES SALMONELLA TYPHIMURIUM, Strain/Indicator: TA100, Metabolic Activation: GUINEA PIG, LIVER, S-9, PCB, Method: PREINCUBATION): inactive; negative
mutagenic call (Test System: AMES SALMONELLA TYPHIMURIUM, Strain/Indicator: TA100, Metabolic Activation: HAMSTER, LIVER, S-9, PCB, Method: PREINCUBATION): inactive; negative
mutagenic call (Test System: AMES SALMONELLA TYPHIMURIUM, Strain/Indicator: TA100, Metabolic Activation: MOUSE, LIVER, S-9, PCB, Method: PREINCUBATION): inactive; negative
mutagenic call (Test System: AMES SALMONELLA TYPHIMURIUM, Strain/Indicator: TA100, Metabolic Activation: NONE, Method: PREINCUBATION): inactive; negative
mutagenic call [3]: inactive; negative
mutagenic call (Test System: AMES SALMONELLA TYPHIMURIUM, Strain/Indicator: TA100, Metabolic Activation: RAT LIVER S-9, PHENOBARBITAL, Method: STANDARD PLATE): inactive; negative
mutagenic call [4]: inactive; negative
mutagenic call (Test System: AMES SALMONELLA TYPHIMURIUM, Strain/Indicator: TA100, Metabolic Activation: RAT, LIVER, S-9, PCB, Method: PREINCUBATION): inactive; negative
mutagenic call (Test System: AMES SALMONELLA TYPHIMURIUM, Strain/Indicator: TA102, Metabolic Activation: NONE, Method: STANDARD PLATE): inactive; negative
mutagenic call (Test System: AMES SALMONELLA TYPHIMURIUM, Strain/Indicator: TA102, Metabolic Activation: RAT LIVER S-9, PHENOBARBITAL, Method: STANDARD PLATE): inactive; negative
mutagenic call (Test System: AMES SALMONELLA TYPHIMURIUM, Strain/Indicator: TA102, Metabolic Activation: RAT, LIVER, S-9, AROCLOR 1254, Method: STANDARD PLATE): inactive; negative
mutagenic call (Test System: AMES SALMONELLA TYPHIMURIUM, Strain/Indicator: TA104, Metabolic Activation: NONE, Method: STANDARD PLATE): inactive; negative
mutagenic call (Test System: AMES SALMONELLA TYPHIMURIUM, Strain/Indicator: TA104, Metabolic Activation: RAT, LIVER, S-9, AROCLOR 1254, Method: STANDARD PLATE): inactive; negative

CC1=C(Cl)C(=O)OC1O (stereo unspecified)
mutagenic call [3]: active; positive
mutagenic call (Test System: Ames Salmonella typhimurium, Strain/Indicator: TA100, Metabolic Activation: None, Method: Plate incorporation): active; positive
mutagenic call (Test System: Ames Salmonella typhimurium, Strain/Indicator: TA104, Metabolic Activation: None, Method: Plate incorporation): active; positive
mutagenic call (Test System: UDS RAT HEPATOCYTES, Strain/Indicator: THYMIDINE INCORPORATION, Metabolic Activation: NONE, Method: AUTORADIOGRAPHY): active; positive

CCCCCCCCCC(=O)N=c1sn(C(=O)CCCCCCCCC)c2ccc([N+](=O)[O-])cc12
mutagenic call (Test System: AMES SALMONELLA TYPHIMURIUM, Strain/Indicator: TA100, Metabolic Activation: S-9, Method: STANDARD PLATE): active; positive

Cc1cc2c(N3CCCC3)nc(N3CCCC3)nc2n1C
mutagenic call (Test System: UDS RAT HEPATOCYTES, Strain/Indicator: THY-INCORP, Metabolic Activation: NONE, Method: AUTORADIOGRAPHY): active; positive

OCCCc1ccccc1
mutagenic call (Test System: AMES SALMONELLA TYPHIMURIUM, Strain/Indicator: TA98, Metabolic Activation: HAMSTER, LIVER, S-9, AROCLOR 1254, Method: STANDARD PLATE): inactive; negative
mutagenic call [1]: inactive; negative
mutagenic call [2]: inactive; negative
mutagenic call (Test System: AMES SALMONELLA TYPHIMURIUM, Strain/Indicator: TA100, Metabolic Activation: HAMSTER, LIVER, S-9, AROCLOR 1254, Method: STANDARD PLATE): inactive; negative
mutagenic call [3]: inactive; negative
mutagenic call [4]: inactive; negative
mutagenic call (Test System: AMES SALMONELLA TYPHIMURIUM, Strain/Indicator: TA1535, Metabolic Activation: HAMSTER, LIVER, S-9, AROCLOR 1254, Method: STANDARD PLATE): inactive; negative
mutagenic call (Test System: AMES SALMONELLA TYPHIMURIUM, Strain/Indicator: TA1535, Metabolic Activation: NONE, Method: STANDARD PLATE): inactive; negative
mutagenic call (Test System: AMES SALMONELLA TYPHIMURIUM, Strain/Indicator: TA1535, Metabolic Activation: RAT, LIVER, S-9, AROCLOR 1254, Method: STANDARD PLATE): inactive; negative
mutagenic call (Test System: AMES SALMONELLA TYPHIMURIUM, Strain/Indicator: TA1537, Metabolic Activation: HAMSTER, LIVER, S-9, AROCLOR 1254, Method: STANDARD PLATE): inactive; negative
mutagenic call (Test System: AMES SALMONELLA TYPHIMURIUM, Strain/Indicator: TA1537, Metabolic Activation: NONE, Method: STANDARD PLATE): inactive; negative
mutagenic call (Test System: AMES SALMONELLA TYPHIMURIUM, Strain/Indicator: TA1537, Metabolic Activation: RAT, LIVER, S-9, AROCLOR 1254, Method: STANDARD PLATE): inactive; negative
mutagenic call (Test System: AMES SALMONELLA TYPHIMURIUM, Strain/Indicator: TA1538, Metabolic Activation: HAMSTER, LIVER, S-9, AROCLOR 1254, Method: STANDARD PLATE): inactive; negative
mutagenic call (Test System: AMES SALMONELLA TYPHIMURIUM, Strain/Indicator: TA1538, Metabolic Activation: NONE, Method: STANDARD PLATE): inactive; negative
mutagenic call (Test System: AMES SALMONELLA TYPHIMURIUM, Strain/Indicator: TA1538, Metabolic Activation: RAT, LIVER, S-9, AROCLOR 1254, Method: STANDARD PLATE): inactive; negative
mutagenic call (Test System: MOUSE LYMPHOMA, Strain/Indicator: L5178Y (TK+/TK-), Metabolic Activation: NONE, Method: SUSPENSION/PLATE): inactive; negative. reevaluation of results: negative
mutagenic call (Test System: MOUSE LYMPHOMA, Strain/Indicator: L5178Y (TK+/TK-), Metabolic Activation: RAT, LIVER, S-9, AROCLOR 1254, Method: SUSPENSION/PLATE): inactive; negative. reevaluation of results: negative

O=[N+]([O-])c1cccc2ccccc12
mutagenic call [1]: active; positive
mutagenic call (Test System: E. COLI, Strain/Indicator: WP2 UVRA, Metabolic Activation: HAMSTER, LIVER, S-9, AROCLOR 1254, Method: STANDARD PLATE): inactive; negative
mutagenic call (Test System: E. COLI, Strain/Indicator: WP2 UVRA, Metabolic Activation: MOUSE, LIVER, S-9, AROCLOR 1254, Method: STANDARD PLATE): inactive; negative
mutagenic call (Test System: E. COLI, Strain/Indicator: WP2 UVRA, Metabolic Activation: MOUSE, LIVER, S-9, Method: STANDARD PLATE): inactive; negative
mutagenic call (Test System: E. COLI, Strain/Indicator: WP2 UVRA, Metabolic Activation: NONE, Method: STANDARD PLATE): inactive; negative
mutagenic call (Test System: E. COLI, Strain/Indicator: WP2 UVRA, Metabolic Activation: RAT, LIVER, S-9, AROCLOR 1254, Method: STANDARD PLATE): inactive; negative
mutagenic call (Test System: E. COLI, Strain/Indicator: WP2 UVRA, Metabolic Activation: RAT, LIVER, S-9, Method: STANDARD PLATE): inactive; negative

COc1c(O)c(Cl)c(Cl)c(Cl)c1Cl
mutagenic call (Test System: CHINESE HAMSTER V-79, Strain/Indicator: V-79/6-THIOGUANINE, Metabolic Activation: NONE, Method: STANDARD PLATE): inactive; negative
